# Measurements published in paper PMC6895203, “Conformational pathway provides unique sensitivity to a synaptic mGluR” (Nature Communications, 2019).
# “And” between values parts separate entries of the source, which are not always exact repeats. Equal entries are not always repeated.
# How the values were obtained:
# [1] = molecular target: T1, SNAP-mGluR7(N74K) homodimer (Rattus norvegicus, UniProt P35400, N74K); test: smFRET on SNAP-mGluR7(N74K) homodimers; type: biochemical; details: 10 mM glutamate; wild-type at >10X higher glutamate
# T1 construct: HA (N); made in house; host or cells: HEK293T
# Excerpt: (100 ms time resolution).
# [2] = molecular target: T2, CLIP-mGluR2/SNAP-mGluR7 heterodimer (mGluR2/7) (Rattus norvegicus, UniProt P31421+P35400); test: smFRET on isolated CLIP-mGluR2/SNAP-mGluR7 heterodimers
# [3] = molecular target: T3, SNAP-mGluR4/4 homodimer (Rattus norvegicus, UniProt P31423); test: Live-cell ensemble FRET of SNAP-mGluR4/4 homodimer in HEK293 cells; type: cell-based
# T3 construct: HA (N); expressed in transfected cells; host or cells: HEK293 / HEK293T
# Description: (§1) After labeling, cells were mounted on an upright, scanning confocal microscope (Zeiss LSM 780) and imaged with a 20X objective. […] Clusters of cells were analyzed together and FRET was calculated as FRET = (IA)/(ID + IA), in which ID is the fluorescence donor intensity and IA is the fluorescence acceptor intensity. […] Fitting of dose–response curves was performed using Prism (Graphpad). […] Drugs were delivered with a gravity-driven perfusion system.
# [4] = molecular target: SNAP-mGluR2/SNAP-mGluR2 homodimer (mGluR2/2) (Rattus norvegicus, UniProt P31421); test: Live-cell ensemble FRET of SNAP-mGluR2/2 homodimer in HEK293T cells; type: cell-based; set-up: HA (N); made in house; host or cells: HEK293T; details: for normalized FRET response (Figure 3c titration), AVG: left block
# Description: as §1
# [5] = test system: mGluR5(YADA) homodimer; details: 10 mM glutamate ref 46; cited from earlier work
# [6] = molecular target: T2, CLIP-mGluR2/SNAP-mGluR7 heterodimer (mGluR2/7); test: Live-cell ensemble FRET of mGluR2/7 heterodimer in HEK293 cells; type: cell-based; set-up: Flag (N); HA (N); made in house; host or cells: HEK293T; details: for normalized FRET response (Figure 3c titration), AVG: right block
# Description: The co-expression of SNAP-mGluR7 and CLIP-mGluR2 is expected to yield three dimer stoichiometries: the homodimeric SNAP-mGluR7/SNAP-mGluR7; the homodimeric CLIP-mGluR2/CLIP-mGluR2, and the heterodimeric SNAP-mGluR7/CLIP-mGluR2. Of these, only the heterodimer combines the donor and acceptor and produces a FRET signal.
# as §1
# [7] = molecular target: T4, SNAP-mGluR2(F756D)/mGluR7 heterodimer (Rattus norvegicus, UniProt P31421+P35400, F756D); test: Whole-cell patch clamp of GIRK1 current, trans-activation in SNAP-mGluR2(F756D)/mGluR7; type: cell-based; details: for glutamate GIRK concentration-response relation compared to mGluR2/2: patch clamp
# T4 construct: HA (N); expressed in transfected cells; host or cells: HEK293 / HEK293T
# Excerpt: We explored this further by examining trans-activation, whereby binding of ligand to one subunit activates G-protein interaction in the partner subunit[46],[47]. To specifically activate only the mGluR2 subunit of the mGluR2/7 heterodimer, we selectively attached a photoswitched tethered ligand to mGluR2. […] SNAP-mGluR2(F756D) was co-expressed with wild-type mGluR7 along with the GIRK1 channel.
# Illumination was applied to the entire field of view using either a Polychrome V monochromator (TILL Photonics) through a 20× objective, or a Lambda DG4 high-speed wavelength switcher (Sutter Instruments) with 380 nm and 500 nm filters through a 40× objective. pClamp software was used for both data acquisition and control of illumination.
# Sequence of SNAP-mGluR2/SNAP-mGluR2 homodimer (mGluR2/2) (P31421 19-872): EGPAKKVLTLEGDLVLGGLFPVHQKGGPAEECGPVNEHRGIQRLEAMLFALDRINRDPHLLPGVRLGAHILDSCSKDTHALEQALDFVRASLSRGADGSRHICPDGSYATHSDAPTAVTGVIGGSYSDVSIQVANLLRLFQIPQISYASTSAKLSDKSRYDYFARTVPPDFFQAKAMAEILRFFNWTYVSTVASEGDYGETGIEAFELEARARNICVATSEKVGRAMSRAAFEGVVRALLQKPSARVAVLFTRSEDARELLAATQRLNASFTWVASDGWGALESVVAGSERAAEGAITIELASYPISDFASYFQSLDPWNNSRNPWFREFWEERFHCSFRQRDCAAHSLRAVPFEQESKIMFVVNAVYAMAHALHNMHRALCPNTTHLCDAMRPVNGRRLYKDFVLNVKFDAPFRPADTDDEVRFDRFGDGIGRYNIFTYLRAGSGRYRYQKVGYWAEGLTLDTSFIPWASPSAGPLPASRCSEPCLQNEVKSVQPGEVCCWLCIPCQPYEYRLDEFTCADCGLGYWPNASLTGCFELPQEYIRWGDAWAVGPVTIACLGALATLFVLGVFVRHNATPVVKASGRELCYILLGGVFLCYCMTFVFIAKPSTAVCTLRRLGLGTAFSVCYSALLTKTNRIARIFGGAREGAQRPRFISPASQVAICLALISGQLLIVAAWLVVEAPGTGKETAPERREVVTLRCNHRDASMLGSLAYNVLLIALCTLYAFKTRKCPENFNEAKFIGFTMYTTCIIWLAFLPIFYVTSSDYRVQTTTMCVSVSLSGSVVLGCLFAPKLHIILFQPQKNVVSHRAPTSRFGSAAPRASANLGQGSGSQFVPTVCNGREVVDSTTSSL
# T2 sequence (P31421 19-872): as above
# T2 sequence (P35400 35-915): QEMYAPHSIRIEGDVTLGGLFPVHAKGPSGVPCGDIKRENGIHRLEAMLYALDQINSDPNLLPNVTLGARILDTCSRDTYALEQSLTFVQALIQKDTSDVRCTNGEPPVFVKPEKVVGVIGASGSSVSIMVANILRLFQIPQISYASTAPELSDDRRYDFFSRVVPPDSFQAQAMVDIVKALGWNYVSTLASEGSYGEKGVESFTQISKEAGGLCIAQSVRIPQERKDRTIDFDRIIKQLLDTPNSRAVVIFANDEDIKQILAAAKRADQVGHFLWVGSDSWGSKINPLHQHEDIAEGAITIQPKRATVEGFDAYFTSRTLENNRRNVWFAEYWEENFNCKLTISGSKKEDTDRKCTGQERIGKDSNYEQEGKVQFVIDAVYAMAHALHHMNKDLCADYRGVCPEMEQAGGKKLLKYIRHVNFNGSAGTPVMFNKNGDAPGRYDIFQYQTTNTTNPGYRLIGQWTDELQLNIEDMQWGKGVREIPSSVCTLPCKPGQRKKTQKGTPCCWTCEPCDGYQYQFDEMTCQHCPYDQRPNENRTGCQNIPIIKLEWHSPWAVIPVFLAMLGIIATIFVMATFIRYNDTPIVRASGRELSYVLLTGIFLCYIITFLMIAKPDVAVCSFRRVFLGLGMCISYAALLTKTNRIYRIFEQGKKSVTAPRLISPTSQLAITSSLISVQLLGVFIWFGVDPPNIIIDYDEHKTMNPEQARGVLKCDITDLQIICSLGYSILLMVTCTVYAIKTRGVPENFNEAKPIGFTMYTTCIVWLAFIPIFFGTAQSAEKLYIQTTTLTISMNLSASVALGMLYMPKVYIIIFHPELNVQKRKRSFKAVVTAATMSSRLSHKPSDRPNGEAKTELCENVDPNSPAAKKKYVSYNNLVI
# T4 sequence (P31421 19-872 F756D): as the sequence (P31421 19-872) above, with F738D counted along it
# T4 sequence (P35400 35-915): as the sequence (P35400 35-915) above
# T3 sequence (P31423 33-912): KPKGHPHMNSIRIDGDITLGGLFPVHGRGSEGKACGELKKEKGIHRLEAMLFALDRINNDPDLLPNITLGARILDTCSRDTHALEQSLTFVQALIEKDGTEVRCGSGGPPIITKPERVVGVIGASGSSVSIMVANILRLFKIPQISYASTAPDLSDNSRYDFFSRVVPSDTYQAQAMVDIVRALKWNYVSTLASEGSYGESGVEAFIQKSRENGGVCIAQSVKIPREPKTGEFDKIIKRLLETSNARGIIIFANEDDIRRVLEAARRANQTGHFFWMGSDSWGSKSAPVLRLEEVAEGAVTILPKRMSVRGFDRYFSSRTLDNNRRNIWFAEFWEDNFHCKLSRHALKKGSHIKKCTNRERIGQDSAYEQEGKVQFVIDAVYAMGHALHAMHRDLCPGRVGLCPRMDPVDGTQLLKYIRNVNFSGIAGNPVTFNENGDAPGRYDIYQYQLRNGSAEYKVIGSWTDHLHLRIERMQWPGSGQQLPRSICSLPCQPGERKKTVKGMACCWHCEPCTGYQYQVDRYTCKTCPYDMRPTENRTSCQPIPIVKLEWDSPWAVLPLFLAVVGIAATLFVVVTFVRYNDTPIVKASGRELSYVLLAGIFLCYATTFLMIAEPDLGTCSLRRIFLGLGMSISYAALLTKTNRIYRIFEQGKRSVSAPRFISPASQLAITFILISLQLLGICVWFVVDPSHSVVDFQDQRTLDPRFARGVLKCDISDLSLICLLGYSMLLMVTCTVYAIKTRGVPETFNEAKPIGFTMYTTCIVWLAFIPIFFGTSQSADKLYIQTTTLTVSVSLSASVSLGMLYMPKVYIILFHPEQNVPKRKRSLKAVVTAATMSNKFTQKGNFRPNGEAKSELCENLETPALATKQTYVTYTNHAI
# T1 sequence (P35400 35-915 N74K): as the sequence (P35400 35-915) above, with N40K counted along it
smiles,measurement,setting,value
N[C@@H](CCC(=O)O)C(=O)O [glutamate],occupancy of activated low FRET state vs wild-type mGluR7,[1],greater occupancy of the activated low FRET (~0.2) state
same,occupancy of the low FRET active state,[2]; 10 μM glutamate,~ 50%
same,smFRET level,[2]; 10 mM glutamate,~ 0.2
same,"minor low affinity component, share",[2]; smFRET,~ 20%
same,occupancy of low FRET activated conformation at top of biphasic relation,[2]; smFRET,full occupancy
same,"major high affinity component (single-subunit liganding), share of maximal activation","[2]; smFRET, top of first component at 1 mM glutamate",~ 80%
same,"titration values, single replicates 1-3","[3]; Glu 1e-8, individual replicates",0
same,"titration values, AVG (normalized response)",[3]; Glu 1e-7,0.0203
same,"titration values, single replicates 1-3","[3]; Glu 1e-7, individual replicates, listed as Glu",0.03656 and 0.01694 and 0.007398
same,"titration values, AVG (normalized response)",[3]; Glu 1e-6,0.0444
same,"titration values, single replicates 1-3","[3]; Glu 1e-6, individual replicates, listed as Glu",0.05482 and 0.03845 and 0.03991
same,"titration values, AVG (normalized response)",[3]; Glu 1e-5,0.4393
same,"titration values, single replicates 1-3","[3]; Glu 1e-5, individual replicates, listed as Glu",0.4343 and 0.4025 and 0.481
same,"titration values, AVG (normalized response)",[3]; Glu 0.0001,0.8959
same,"titration values, single replicates 1-3","[3]; Glu 0.0001, individual replicates, listed as Glu",0.9016 and 0.8805 and 0.9055
same,"titration values, AVG (normalized response)",[3]; Glu 0.001 (normalisation point),1
same,"titration values, single replicates 1-3","[3]; Glu 0.001 (normalisation point), individual replicates",1
same,"fractional change in FRET (Figure 1c), Average","[4]; 1 mM glutamate, live cells",0.0345
same,"normalized FRET response (Figure 3c titration), AVG","[4]; Glu 1uM, normalized to 10 mM",0.02436
same,"normalized FRET response (Figure 3c titration), AVG",[4]; Glu 5uM,0.1119
same,"normalized FRET response (Figure 3c titration), AVG",[4]; Glu 10uM,0.2744
same,"normalized FRET response (Figure 3c titration), AVG",[4]; Glu 20uM,0.534
same,"normalized FRET response (Figure 3c titration), AVG",[4]; Glu 50uM,0.7966
same,"normalized FRET response (Figure 3c titration), AVG",[4]; Glu 100uM,0.8891
same,"normalized FRET response (Figure 3c titration), AVG",[4]; Glu 200uM,0.9536
same,"normalized FRET response (Figure 3c titration), AVG",[4]; Glu 500uM,0.9786
same,"normalized FRET response (Figure 3c titration), AVG",[4]; Glu 1mM,0.9832
same,"normalized FRET response (Figure 3c titration), AVG",[4]; Glu 10mM (normalization point),1
same,activation by glutamate,[5],not be activated
same,"major high affinity component, share of total ΔFRET",[6]; live-cell ensemble FRET,~ 80%
same,"minor lower affinity component, share of total ΔFRET",[6]; live-cell ensemble FRET,~ 20%
same,"normalized FRET response (Figure 3c titration), AVG","[6]; Glu 1uM, normalized to 10 mM",0.05708
same,"normalized FRET response (Figure 3c titration), AVG",[6]; Glu 2uM,0.1039
same,"normalized FRET response (Figure 3c titration), AVG",[6]; Glu 5uM,0.2535
same,"normalized FRET response (Figure 3c titration), AVG",[6]; Glu 10uM,0.4051
same,"normalized FRET response (Figure 3c titration), AVG",[6]; Glu 20uM,0.6543
same,"normalized FRET response (Figure 3c titration), AVG",[6]; Glu 50uM,0.6971
same,"normalized FRET response (Figure 3c titration), AVG",[6]; Glu 100uM,0.7929
same,"normalized FRET response (Figure 3c titration), AVG",[6]; Glu 200uM,0.7943
same,"normalized FRET response (Figure 3c titration), AVG",[6]; Glu 500uM,0.8921
same,"normalized FRET response (Figure 3c titration), AVG",[6]; Glu 1mM,0.9417
same,"normalized FRET response (Figure 3c titration), AVG",[6]; Glu 2mM,1.009
same,"normalized FRET response (Figure 3c titration), AVG",[6]; Glu 10mM (normalization point),1
same,"Norm. (100 nM Glu), average","[7]; 100 nM Glu normalised to 1 mM Glu, average of cells",0.158
same,"Norm. (1 uM Glu), average","[7]; 1 uM Glu normalised to 1 mM Glu, average of cells",0.4678
same,Norm. (1 uM Glu),"[7]; 1 uM Glu normalised to 1 mM Glu, single cells, listed as Glu",0.3693 and 0.5844 and 0.4728 and 0.4449
same,"Norm. (10 uM), average","[7]; 10 uM Glu normalised to 1 mM Glu, average of cells",0.7782
same,Norm. (10 uM),"[7]; 10 uM Glu normalised to 1 mM Glu, single cells, listed as Glu",0.7837 and 0.9099 and 0.6409
same,"Norm. (100 uM), average","[7]; 100 uM Glu normalised to 1 mM Glu, average of cells",0.9915
same,Norm. (100 uM),"[7]; 100 uM Glu normalised to 1 mM Glu, single cells, listed as Glu",1.055 and 0.9085 and 1.011
same,glutamate GIRK concentration-response relation compared to mGluR2/2,[7],shifted to the left
same,glutamate GIRK concentration-response relation compared to mGluR2/2,[7]; listed as Glutamate,left-shifted
